Data published in patent US8247211B2, “Glycopeptide antibiotics” (American Cyanamid Company, priority 2001, dated 2012).
≈ marks a conversion by molar mass, not a printed value.

How the values were obtained:
Test in all cases: In vitro antibacterial evaluation: minimum inhibitory concentration (MIC), broth dilution method
Assay type in all cases: cell-based
Staphylococcus sp. = conditions: broth dilution, 18 hours at 35° C.
Protocol: (§1) The minimum inhibitory concentration (MIC), the lowest concentration of the antibiotic which inhibits growth of the test organism, is determined by the broth dilution method using Muller-Hinton II […] (Baltimore Biological Laboratories) following the recommendations of the National Committee for Clinical Laboratory Standards [Methods for dilution antimicrobial susceptibility tests for bacteria that grow aerobically, approved standard M7-A2, National Committee for Clinical Laboratory Standards, Villanova, Pa].
(§2) An inoculum level of 5×10^5 CFU/mL, and a range of antibiotic concentrations (64-0.06 μg/mL) is used. […] The test organisms include a spectrum of Gram-positive bacteria comprised of Staphylococcus sp., Streptococcus sp. and Enterococcus sp. These organisms include recent clinical isolates that are resistant to methicillin, penicillin and/or vancomycin.

Enterococcus sp. = test system: Enterococcus sp.
Protocol: as §1, §2

Streptococcus sp. = test system: Streptococcus sp.
Protocol: as §1, §2

Escherichia coli = test system: Escherichia coli
Protocol: as §1, §2

- MIC Coagulase Negative Staphylococcus (GC 4547) (Staphylococcus sp.; 5×10^5 CFU/mL): 4 mg/L (≈ 2.82 µM)
- MIC Coagulase Negative Staphylococcus (GC 4548) (Staphylococcus sp.; 5×10^5 CFU/mL): 1 mg/L (≈ 0.705 µM)
- MIC Coagulase Negative Staphylococcus (GC 4549) (Staphylococcus sp.; 5×10^5 CFU/mL): 1 mg/L (≈ 0.705 µM)
- MIC Coagulase Negative Staphylococcus (GC 4551) (Staphylococcus sp.; 5×10^5 CFU/mL): 2 mg/L (≈ 1.41 µM)
- MIC Coagulase Negative Staphylococcus (GC 6257) (Staphylococcus sp.; 5×10^5 CFU/mL): 2 mg/L (≈ 1.41 µM)
- MIC Staphylococcus aureus (ATCC 29213) (Staphylococcus sp.; 5×10^5 CFU/mL): 2 mg/L (≈ 1.41 µM)
- MIC Staphylococcus aureus (GC 1131) (Staphylococcus sp.; 5×10^5 CFU/mL): 2 mg/L (≈ 1.41 µM)
- MIC Staphylococcus aureus (GC 3051) (Staphylococcus sp.; 5×10^5 CFU/mL): 2 mg/L (≈ 1.41 µM)
- MIC Staphylococcus aureus (GC 3053) (Staphylococcus sp.; 5×10^5 CFU/mL): 2 mg/L (≈ 1.41 µM)
- MIC Staphylococcus aureus (GC 4541) (Staphylococcus sp.; 5×10^5 CFU/mL): 2 mg/L (≈ 1.41 µM)
- MIC Staphylococcus aureus (GC 4542) (Staphylococcus sp.; 5×10^5 CFU/mL): 2 mg/L (≈ 1.41 µM)
- MIC Staphylococcus aureus (GC 4544) (Staphylococcus sp.; 5×10^5 CFU/mL): 2 mg/L (≈ 1.41 µM)
- MIC Staphylococcus aureus (GC 4545) (Staphylococcus sp.; 5×10^5 CFU/mL): 2 mg/L (≈ 1.41 µM)
- MIC Staphylococcus aureus-SMITH (GC 4543) (Staphylococcus sp.; 5×10^5 CFU/mL): 1 mg/L (≈ 0.705 µM)
- MIC Staphylococcus aureus (ATCC 29213) (Staphylococcus sp.; strain ATCC 29213): 2 mg/L (≈ 1.41 µM)
- MIC Staphylococcus aureus (GC 1131) (Staphylococcus sp.; strain GC 1131): 2 mg/L (≈ 1.41 µM)
- MIC Staphylococcus aureus (GC 3051) (Staphylococcus sp.; strain GC 3051): 2 mg/L (≈ 1.41 µM)
- MIC Staphylococcus aureus (GC 3053) (Staphylococcus sp.; strain GC 3053): 2 mg/L (≈ 1.41 µM)
- MIC Staphylococcus aureus (GC 4541) (Staphylococcus sp.; strain GC 4541): 2 mg/L (≈ 1.41 µM)
- MIC Staphylococcus aureus (GC 4542) (Staphylococcus sp.; strain GC 4542): 2 mg/L (≈ 1.41 µM)
- MIC Staphylococcus aureus-SMITH (GC 4543) (Staphylococcus sp.; strain GC 4543): 1 mg/L (≈ 0.705 µM)
- MIC Staphylococcus aureus (GC 4544) (Staphylococcus sp.; strain GC 4544): 2 mg/L (≈ 1.41 µM)
- MIC Staphylococcus aureus (GC 4545) (Staphylococcus sp.; strain GC 4545): 2 mg/L (≈ 1.41 µM)
- MIC Coagulase Negative Staphylococcus (GC 4547) (Staphylococcus sp.; strain GC 4547): 4 mg/L (≈ 2.82 µM)
- MIC Coagulase Negative Staphylococcus (GC 4548) (Staphylococcus sp.; strain GC 4548): 1 mg/L (≈ 0.705 µM)
- MIC Coagulase Negative Staphylococcus (GC 4549) (Staphylococcus sp.; strain GC 4549): 1 mg/L (≈ 0.705 µM)
- MIC Coagulase Negative Staphylococcus (GC 4551) (Staphylococcus sp.; strain GC 4551): 2 mg/L (≈ 1.41 µM)
- MIC Coagulase Negative Staphylococcus (GC 6257) (Staphylococcus sp.; strain GC 6257): 2 mg/L (≈ 1.41 µM)
- MIC Enterococcus faecalis (ATCC 29212) (Enterococcus sp.; strain ATCC 29212): 4 mg/L (≈ 2.82 µM)
- MIC Enterococcus faecalis (GC 2242) (Enterococcus sp.; strain GC 2242): 4 mg/L (≈ 2.82 µM)
- MIC Enterococcus faecium (GC 2243) (Enterococcus sp.; strain GC 2243): 4 mg/L (≈ 2.82 µM)
- MIC Enterococcus faecalis (GC 2691) (Enterococcus sp.; strain GC 2691): 8 mg/L (≈ 5.64 µM)
- MIC Enterococcus faecalis (GC 3059) (Enterococcus sp.; strain GC 3059): 4 mg/L (≈ 2.82 µM)
- MIC Enterococcus faecalis (GC 4552) (Enterococcus sp.; strain GC 4552): 4 mg/L (≈ 2.82 µM)
- MIC Enterococcus faecalis (GC 4553) (Enterococcus sp.; strain GC 4553): 8 mg/L (≈ 5.64 µM)
- MIC Enterococcus faecalis (GC 4554) (Enterococcus sp.; strain GC 4554): 8 mg/L (≈ 5.64 µM)
- MIC Enterococcus faecium (GC 4556) (Enterococcus sp.; strain GC 4556): 8 mg/L (≈ 5.64 µM)
- MIC Enterococcus faecium (GC 4557) (Enterococcus sp.; strain GC 4557): 2 mg/L (≈ 1.41 µM)
- MIC Enterococcus avium (GC 4558) (Enterococcus sp.; strain GC 4558): 4 mg/L (≈ 2.82 µM)
- MIC Enterococcus faecalis (GC 6189) (Enterococcus sp.; strain GC 6189): 4 mg/L (≈ 2.82 µM)
- MIC Streptococcus pneumoniae (ATCC 6301) (Streptococcus sp.; strain ATCC 6301): <0.06 mg/L
- MIC Streptococcus pneumoniae (GC 1894) (Streptococcus sp.; strain GC 1894): <0.06 mg/L
- MIC Streptococcus pyogenes (GC 4563) (Streptococcus sp.; strain GC 4563): 0.25 mg/L (≈ 0.176 µM)
- MIC Streptococcus agalactiae (GC 4564) (Streptococcus sp.; strain GC 4564): 0.12 mg/L (≈ 0.0846 µM)
- MIC Streptococcus pneumoniae (GC 4565) (Streptococcus sp.; strain GC 4565): <0.06 mg/L
- MIC Escherichia coli (ATCC 25922) (Escherichia coli; strain ATCC 25922): 64 mg/L (≈ 45.1 µM)
- MIC Escherichia coli (GC 4559) (Escherichia coli; strain GC 4559): 64 mg/L (≈ 45.1 µM)
- MIC Escherichi coli (GC 4560) (Escherichia coli; strain GC 4560): 0.5 mg/L (≈ 0.353 µM)
SMILES: CC(c1ccccc1)C1NC(=O)CNC(=O)C(CO)NC(=O)C(C(O)C2CNC(=N)N2C2OC(CO)C(O)C(O)C2O)NC(=O)C(C(O)C2CNC(=N)N2)NC(=O)C(Cc2ccc(OC3OC(CO)C(OC4OC5COC(c6cccc(Cl)c6)OC5C(O)C4O)C(O)C3O)cc2)NC1=O (stereo not drawn) [Example 138, Cyclo[glycyl-β-methylphenylalanyl-O-[4-O-[4,6-O-(3-chlorobenzylidene)hexopyranosyl]-hexopyranosyl]tyrosyl-3-(2-iminoimidazolidin-4-yl)seryl-3-(3-hexopyranosyl-2-iminoimidazolidin-4-yl)serylseryl]]
- MIC Staphylococcus haemolyticus (GC 4546) (Staphylococcus sp.; 5×10^5 CFU/mL): 2 mg/L (≈ 1.41 µM)
- MIC Staphylococcus haemolyticus (GC 4546) (Staphylococcus sp.; strain GC 4546): 2 mg/L (≈ 1.41 µM)
